Test results as given in PubChem BioAssay (NCI).
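Step 1: Grow cells in 96-well plates. Step 2: Expose to compound for 48 hours at 5 concentrations. Step 3: Interpolate endpoints linearly; if unreached, use highest concentration. GI50 marks 50% less growth. At the TGI there is no net growth.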

How the values were obtained:
Experiment in all cases: NCI tumour cell line growth inhibition, 48 h
786-0 renal = tested on: 786-0 renal
A498 renal = tested on: A498 renal
ACHN renal = tested on: ACHN renal
BT-549 breast = tested on: BT-549 breast
CAKI-1 renal = tested on: CAKI-1 renal
CCRF-CEM leukemia = tested on: CCRF-CEM leukemia
COLO 205 colon = tested on: COLO 205 colon
DU-145 prostate = tested on: DU-145 prostate
EKVX NSCLC = tested on: EKVX NSCLC
HCC-2998 colon = tested on: HCC-2998 colon
HCT-116 colon = tested on: HCT-116 colon
HCT-15 colon = tested on: HCT-15 colon
HL-60(TB) leukemia = tested on: HL-60(TB) leukemia
HOP-62 NSCLC = tested on: HOP-62 NSCLC
HOP-92 NSCLC = tested on: HOP-92 NSCLC
HS 578T breast = tested on: HS 578T breast
HT29 colon = tested on: HT29 colon
IGROV1 ovarian = tested on: IGROV1 ovarian
K-562 leukemia = tested on: K-562 leukemia
KM12 colon = tested on: KM12 colon
LOX IMVI melanoma = tested on: LOX IMVI melanoma
M14 melanoma = tested on: M14 melanoma
MCF7 breast = tested on: MCF7 breast
MDA-MB-231 breast = tested on: MDA-MB-231 breast
MDA-MB-435 = tested on: MDA-MB-435
MOLT-4 leukemia = tested on: MOLT-4 leukemia
NCI-H226 lung = tested on: NCI-H226 lung
NCI-H23 lung = tested on: NCI-H23 lung
NCI-H460 lung = tested on: NCI-H460 lung
NCI/ADR-RES ovarian = tested on: NCI/ADR-RES ovarian
OVCAR-4 ovarian = tested on: OVCAR-4 ovarian
OVCAR-8 ovarian = tested on: OVCAR-8 ovarian
PC-3 prostate = tested on: PC-3 prostate
RPMI-8226 leukemia = tested on: RPMI-8226 leukemia
RXF 393 renal = tested on: RXF 393 renal
SF-268 CNS = tested on: SF-268 CNS
SF-295 CNS = tested on: SF-295 CNS
SF-539 CNS = tested on: SF-539 CNS
SK-MEL-2 melanoma = tested on: SK-MEL-2 melanoma
SK-MEL-28 melanoma = tested on: SK-MEL-28 melanoma
SK-MEL-5 melanoma = tested on: SK-MEL-5 melanoma
SK-OV-3 ovarian = tested on: SK-OV-3 ovarian
SNB-19 CNS = tested on: SNB-19 CNS
SNB-75 CNS = tested on: SNB-75 CNS
SR leukemia = tested on: SR leukemia
SW-620 colon = tested on: SW-620 colon
T-47D breast = tested on: T-47D breast
TK-10 renal = tested on: TK-10 renal
U251 CNS = tested on: U251 CNS
UACC-257 melanoma = tested on: UACC-257 melanoma
UACC-62 melanoma = tested on: UACC-62 melanoma
UO-31 renal = tested on: UO-31 renal
A549 NSCLC = tested on: A549 NSCLC
MALME-3M melanoma = tested on: MALME-3M melanoma
OVCAR-3 ovarian = tested on: OVCAR-3 ovarian
OVCAR-5 ovarian = tested on: OVCAR-5 ovarian
SN12C renal = tested on: SN12C renal

## O=c1[nH]c2ccc(C(F)(F)F)cc2nc1Cc1ccccc1
786-0 renal
  TGI: > 100 µM
A498 renal
  TGI: 66.9 µM
ACHN renal
  TGI: 88.4 µM
BT-549 breast
  TGI: 69.4 µM
CAKI-1 renal
  TGI: > 100 µM
CCRF-CEM leukemia
  TGI: > 100 µM
COLO 205 colon
  TGI: 40.7 µM
DU-145 prostate
  TGI: > 100 µM
EKVX NSCLC
  TGI: > 100 µM
HCC-2998 colon
  TGI: 82.6 µM
HCT-116 colon
  TGI: > 100 µM
HCT-15 colon
  TGI: > 100 µM
HL-60(TB) leukemia
  TGI: > 100 µM
HOP-62 NSCLC
  TGI: > 100 µM
HOP-92 NSCLC
  TGI: 50.4 µM
HS 578T breast
  TGI: 71.3 µM
HT29 colon
  TGI: 68.7 µM
IGROV1 ovarian
  TGI: > 100 µM
K-562 leukemia
  TGI: > 100 µM
KM12 colon
  TGI: > 100 µM
LOX IMVI melanoma
  TGI: > 100 µM
M14 melanoma
  TGI: 97.1 µM
MCF7 breast
  TGI: > 100 µM
MDA-MB-231 breast
  TGI: > 100 µM
MDA-MB-435
  TGI: > 100 µM
MOLT-4 leukemia
  TGI: 46 µM
NCI-H226 lung
  TGI: 50.7 µM
NCI-H23 lung
  TGI: 46.5 µM
NCI-H460 lung
  TGI: > 100 µM
NCI/ADR-RES ovarian
  TGI: 71.2 µM
OVCAR-4 ovarian
  TGI: > 100 µM
OVCAR-8 ovarian
  TGI: > 100 µM
PC-3 prostate
  TGI: 81.3 µM
RPMI-8226 leukemia
  TGI: 87.6 µM
RXF 393 renal
  TGI: 61.6 µM
SF-268 CNS
  TGI: > 100 µM
SF-295 CNS
  TGI: > 100 µM
SF-539 CNS
  TGI: > 100 µM
SK-MEL-2 melanoma
  TGI: 62.6 µM
SK-MEL-28 melanoma
  TGI: > 100 µM
SK-MEL-5 melanoma
  TGI: 60.2 µM
SK-OV-3 ovarian
  TGI: > 100 µM
SNB-19 CNS
  TGI: > 100 µM
SNB-75 CNS
  TGI: > 100 µM
SR leukemia
  TGI: > 100 µM
SW-620 colon
  TGI: > 100 µM
T-47D breast
  TGI: > 100 µM
TK-10 renal
  TGI: > 100 µM
U251 CNS
  TGI: > 100 µM
UACC-257 melanoma
  TGI: > 100 µM
UACC-62 melanoma
  TGI: > 100 µM
UO-31 renal
  TGI: > 100 µM

## O=C(COc1cccc(/C=C2/Oc3ccccc3C2=O)c1)Nc1nccs1
786-0 renal
  GI50: 3.3 µM
  TGI: 14.4 µM
A498 renal
  GI50: 20.8 µM
  TGI: 85.4 µM
A549 NSCLC
  GI50: 23.6 µM
  TGI: > 100 µM
ACHN renal
  GI50: 27.4 µM
  TGI: > 100 µM
BT-549 breast
  GI50: 14.9 µM
  TGI: 43.7 µM
CAKI-1 renal
  GI50: 15.9 µM
  TGI: 34.4 µM
CCRF-CEM leukemia
  GI50: 1.89 µM
  TGI: 3.73 µM
COLO 205 colon
  GI50: 24.4 µM
  TGI: 97.9 µM
DU-145 prostate
  GI50: 27.8 µM
  TGI: > 100 µM
EKVX NSCLC
  GI50: 31.9 µM
  TGI: > 100 µM
HCC-2998 colon
  GI50: 29 µM
  TGI: 68.9 µM
HCT-116 colon
  GI50: 22.8 µM
  TGI: > 100 µM
HCT-15 colon
  GI50: 28.3 µM
  TGI: > 100 µM
HL-60(TB) leukemia
  GI50: 2.86 µM
  TGI: 8.58 µM
HOP-62 NSCLC
  GI50: 38.3 µM
  TGI: > 100 µM
HOP-92 NSCLC
  GI50: 10.1 µM
  TGI: 30.2 µM
HS 578T breast
  GI50: 24.4 µM
  TGI: > 100 µM
HT29 colon
  GI50: 32.7 µM
  TGI: > 100 µM
K-562 leukemia
  GI50: 16.4 µM
  TGI: 53.7 µM
KM12 colon
  GI50: 10.5 µM
  TGI: 32.9 µM
LOX IMVI melanoma
  GI50: 2.78 µM
  TGI: 10.2 µM
M14 melanoma
  GI50: 30.5 µM
  TGI: > 100 µM
MALME-3M melanoma
  GI50: 21.2 µM
  TGI: 50.9 µM
MCF7 breast
  GI50: 14.8 µM
  TGI: > 100 µM
MDA-MB-231 breast
  GI50: 7.95 µM
  TGI: 29.8 µM
MDA-MB-435
  GI50: 21.2 µM
  TGI: 68 µM
MOLT-4 leukemia
  GI50: 13 µM
  TGI: 31.4 µM
NCI-H226 lung
  GI50: 22.9 µM
  TGI: 67.9 µM
NCI-H23 lung
  GI50: 24.8 µM
  TGI: > 100 µM
NCI-H460 lung
  GI50: 31.6 µM
  TGI: > 100 µM
NCI/ADR-RES ovarian
  GI50: 30 µM
  TGI: > 100 µM
OVCAR-3 ovarian
  GI50: 14.6 µM
  TGI: 38.8 µM
OVCAR-4 ovarian
  GI50: 19.5 µM
  TGI: 61.8 µM
OVCAR-5 ovarian
  GI50: 44 µM
  TGI: > 100 µM
OVCAR-8 ovarian
  GI50: 16.5 µM
  TGI: 50.1 µM
PC-3 prostate
  GI50: 15.7 µM
  TGI: 58.1 µM
RPMI-8226 leukemia
  GI50: 4.28 µM
  TGI: 23.1 µM
SF-268 CNS
  GI50: 6.23 µM
  TGI: 26.6 µM
SF-295 CNS
  GI50: 36.4 µM
  TGI: > 100 µM
SF-539 CNS
  GI50: 17.1 µM
  TGI: 31.9 µM
SK-MEL-28 melanoma
  GI50: 28.9 µM
  TGI: > 100 µM
SK-MEL-5 melanoma
  GI50: 16.4 µM
  TGI: 35.2 µM
SK-OV-3 ovarian
  GI50: 48.6 µM
  TGI: > 100 µM
SN12C renal
  GI50: 22.4 µM
  TGI: > 100 µM
SNB-19 CNS
  GI50: 25.4 µM
  TGI: > 100 µM
SNB-75 CNS
  GI50: 17.1 µM
  TGI: 58.1 µM
SR leukemia
  GI50: 4.09 µM
  TGI: 15.9 µM
SW-620 colon
  GI50: 27.4 µM
  TGI: > 100 µM
T-47D breast
  GI50: 16.8 µM
  TGI: 58.5 µM
TK-10 renal
  GI50: 15.9 µM
  TGI: 68.7 µM
U251 CNS
  GI50: 20.8 µM
  TGI: > 100 µM
UACC-257 melanoma
  GI50: 20.7 µM
  TGI: 56.3 µM
UACC-62 melanoma
  GI50: 25.6 µM
  TGI: 95.9 µM

## NC(=O)c1c2c(n3ccccc13)C(=O)c1ccccc1C2=O
786-0 renal
  TGI: > 100 µM
A498 renal
  TGI: > 100 µM
ACHN renal
  TGI: > 100 µM
BT-549 breast
  TGI: > 100 µM
CAKI-1 renal
  TGI: > 100 µM
CCRF-CEM leukemia
  TGI: > 100 µM
COLO 205 colon
  TGI: > 100 µM
DU-145 prostate
  TGI: > 100 µM
EKVX NSCLC
  TGI: > 100 µM
HCC-2998 colon
  TGI: > 100 µM
HCT-116 colon
  TGI: > 100 µM
HCT-15 colon
  TGI: > 100 µM
HL-60(TB) leukemia
  TGI: > 100 µM
HOP-62 NSCLC
  TGI: > 100 µM
HOP-92 NSCLC
  TGI: > 100 µM
HS 578T breast
  TGI: > 100 µM
HT29 colon
  TGI: > 100 µM
IGROV1 ovarian
  TGI: > 100 µM
K-562 leukemia
  TGI: > 100 µM
KM12 colon
  TGI: > 100 µM
LOX IMVI melanoma
  TGI: > 100 µM
M14 melanoma
  TGI: > 100 µM
MCF7 breast
  TGI: > 100 µM
MDA-MB-231 breast
  TGI: 93 µM
MDA-MB-435
  TGI: 44 µM
MOLT-4 leukemia
  TGI: > 100 µM
NCI-H226 lung
  TGI: > 100 µM
NCI-H23 lung
  TGI: 36.4 µM
NCI-H460 lung
  TGI: 82.5 µM
NCI/ADR-RES ovarian
  TGI: > 100 µM
OVCAR-4 ovarian
  TGI: > 100 µM
OVCAR-8 ovarian
  TGI: > 100 µM
PC-3 prostate
  TGI: > 100 µM
RPMI-8226 leukemia
  TGI: > 100 µM
RXF 393 renal
  TGI: > 100 µM
SF-268 CNS
  TGI: > 100 µM
SF-295 CNS
  TGI: > 100 µM
SF-539 CNS
  TGI: > 100 µM
SK-MEL-2 melanoma
  TGI: > 100 µM
SK-MEL-28 melanoma
  TGI: > 100 µM
SK-MEL-5 melanoma
  TGI: 37 µM
SK-OV-3 ovarian
  TGI: > 100 µM
SNB-19 CNS
  TGI: > 100 µM
SNB-75 CNS
  TGI: > 100 µM
SR leukemia
  TGI: > 100 µM
SW-620 colon
  TGI: > 100 µM
T-47D breast
  TGI: > 100 µM
TK-10 renal
  TGI: > 100 µM
U251 CNS
  TGI: > 100 µM
UACC-257 melanoma
  TGI: > 100 µM
UACC-62 melanoma
  TGI: > 100 µM
UO-31 renal
  TGI: > 100 µM
